Patent US20230391772A1, “METHODS AND COMPOSITIONS FOR TARGETED PROTEIN DEGRADATION” (Ranok Therapeutics (Hangzhou) Co. Ltd., priority 2020, published 2023)
pEC50, pIC50: −log10 of the molar value.

What was measured:
HSP90a protein = target: T1, HSP90a protein (Homo sapiens, UniProt P07900); test: HSP90α-binding fluorescent polarization (FP) assay, BODIPY-labeled RNK04010 probe; conditions: FP competition with RNK04010 (BODIPY-labeled), 5 nM, 300 min at 25° C.
T1 construct: purchased BPS Bioscience 50298
How it was run: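 Polarization signal was read after equilibration at 25° C, for 120 min with FITC-geldanamycin or 300 min with the BODIPY-tagged RNK04010 probe, each at 5 nM final. Compounds spanned 20 μM down to 5.2 nM in 2.5-fold dilutions against the HSP90a N-terminal domain.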

[1] = test system: MIA PaCa-2 human pancreatic carcinoma; test: MIA PaCa-2 CCK-8 proliferation assay; format: cell-based; conditions: Homo sapiens, MIA PaCa-2, 72 h, MIA PaCa-2 cells
How it was run: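 Compounds were tested as a 3-fold series from 20 μM down to 1.02 nM in CCK-8 absorbance assays. The lines used were NCI-H23 and NCI-H358, each with 1 KRAS(G12C) copy, and MIA PaCa-2 with 2 copies. Inhibition was derived relative to DMSO controls, with a no-cell blank subtracted.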

KRAS(G12C) = KRAS(G12C) (Homo sapiens, UniProt P01116, G12C); test: KRAS(G12C)/SOS1 homogeneous time-resolved fluorescence (HTRF) assay; parameters: purchased Cisbio 63ADK000CB16PEG; conditions: absence of GTP, 4° C. for 3 hr, read-out: KRAS (G12C) binding
Description: KRAS(G12C)/SOS1 Homogeneous Time-Resolved Fluorescence (HTRF) Assay
Binding of test compounds to KRAS(G12C) protein, which in turn blocks KRAS(G12C) interaction with the SOS1 protein, was measured in the absences of GTP by homogeneous time-resolved fluorescence (HTRF) using the KRAS-G12C/SOS1 Binding Assay Kit (Cisbio, #63ADK000CB16PEG), following the manufacturer's instructions, except as noted. 3-fold serial dilutions of each test compound were prepared ranging from […] to 1.02 nM. The test compound was mixed and incubated with reaction components, incubated in a sealed plate at 4° C. for 3 hr and fluorescence was measured using a PerkinElmer Envision plate reader.

Sequence of KRAS(G12C) (P01116 1-188 isoform P01116-2 G12C): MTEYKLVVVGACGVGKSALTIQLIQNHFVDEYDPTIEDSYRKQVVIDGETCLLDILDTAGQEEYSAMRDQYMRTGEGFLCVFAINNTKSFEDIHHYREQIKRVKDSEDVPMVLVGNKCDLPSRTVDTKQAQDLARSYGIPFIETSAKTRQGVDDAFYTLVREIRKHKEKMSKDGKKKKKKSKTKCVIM

SMILES | pIC50 (HSP90a protein) | pEC50 [1] | pIC50 (KRAS(G12C))
C=CC(=O)N1CCN(c2nc(OCCN3CCC4(CC3)CCN(C(=O)C3CCN(Cc5ccc(-n6c(C(=O)NCC(F)(F)F)nnc6-c6cc(C(C)C)c(O)cc6O)cc5)CC3)CC4)nc3c2CCN(c2cccc4cccc(Cl)c24)C3)C[C@@H]1CC#N [Compound 209, (S)-4-(4-((4-(9-(2-((4-(4-acryloyl-3-(cyanomethyl)piperazin-1-yl)-7-(8-chloronaphthalen-1-yl)-5,6,7,8-tetrahydropyrido[3,4-d]pyrimidin-2-yl)oxy)ethyl)-3,9-diazaspiro[5.5]undecane-3-carbonyl)piperidin-1-yl)methyl)phenyl)-5-(2,4-dihydroxy-5-isopropylphenyl)-N-(2,2,2-trifluoroethyl)-4H-1,2,4-triazole-3-carboxamide] | > 7.00 | > 7.00 | > 7.00
C=CC(=O)N1CCN(c2nc(OC[C@@H]3C[C@@H](OCC(=O)N4CCC(Cc5ccc(-n6c(C(=O)NCC(F)(F)F)nnc6-c6cc(C(C)C)c(O)cc6O)cc5)CC4)CN3C)nc3c2CCN(c2cccc4cccc(Cl)c24)C3)C[C@@H]1CC#N [Compound 303, 4-(4-((1-(2-(((3R,5S)-5-(((4-((S)-4-acryloyl-3-(cyanomethyl)piperazin-1-yl)-7-(8-chloronaphthalen-1-yl)-5,6,7,8-tetrahydropyrido[3,4-d]pyrimidin-2-yl)oxy)methyl)-1-methylpyrrolidin-3-yl)oxy)acetyl)piperidin-4-yl)methyl)phenyl)-5-(2,4-dihydroxy-5-isopropylphenyl)-N-(2,2,2-trifluoroethyl)-4H-1,2,4-triazole-3-carboxamide] | > 7.00 | 6.00 to 7.00 | 6.00 to 7.00
C=CC(=O)N1CCN(c2nc(OC[C@@H]3C[C@H](N4CCC(C(=O)N5CCN(Cc6ccc(-n7c(C(=O)NCC(F)(F)F)nnc7-c7cc(C(C)C)c(O)cc7O)cc6)CC5)CC4)CN3C)nc3c2CCN(c2cccc4cccc(Cl)c24)C3)C[C@@H]1CC#N [Compound 314, 4-{4-[(4-{1-[(3S,5S)-5-({[7-(8-chloronaphthalen-1-yl)-4-[(3S)-3-(cyanomethyl)-4-(prop-2-enoyl)piperazin-1-yl]-5H,6H,8H-pyrido[3,4-d]pyrimidin-2-yl]oxy}methyl)-1-methylpyrrolidin-3-yl]piperidine-4-carbonyl}piperazin-1-yl)methyl]phenyl}-5-(2,4-dihydroxy-5-isopropylphenyl)-N-(2,2,2-trifluoroethyl)-1,2,4-triazole-3-carboxamide] | > 7.00 | > 7.00 | > 7.00
C=CC(=O)N1CCN(c2nc(OC[C@@H]3C[C@H](N4CCC(C(=O)N5CCN(Cc6ccc(-n7c(O)nnc7-c7cc(C)c(O)cc7O)cc6)CC5)CC4)CN3C)nc3c2CCN(c2cccc4cccc(Cl)c24)C3)C[C@@H]1CC#N [Compound 321, 2-[(2S)-4-[7-(8-chloronaphthalen-1-yl)-2-{[(2S,4S)-4-{4-[4-({4-[3-(2,4-dihydroxy-5-methylphenyl)-5-hydroxy-1,2,4-triazol-4-yl]phenyl}methyl)piperazine-1-carbonyl]piperidin-1-yl}-1-methylpyrrolidin-2-yl]methoxy}-5H,6H,8H-pyrido[3,4d]-pyrimidin-4-yl]-1-(prop-2-enoyl)piperazin-2-yl]acetonitrile] | > 7.00 | 6.00 to 7.00 | > 7.00
C=CC(=O)N1CCN(c2nc(OC[C@@H]3C[C@@H](NCc4ccc(-n5c(O)nnc5-c5cc(C(C)C)c(O)cc5O)cc4)CN3C)nc3c2CCN(c2cccc4cccc(Cl)c24)C3)C[C@@H]1CC#N [Compound 215, 2-((S)-1-acryloyl-4-(7-(8-chloronaphthalen-1-yl)-2-(((2S,4R)-4-((4-(3-(2,4-dihydroxy-5-isopropylphenyl)-5-hydroxy-4H-1,2,4-triazol-4-yl)benzyl)amino)-1-methylpyrrolidin-2-yl)methoxy)-5,6,7,8-tetrahydropyrido[3,4-d]pyrimidin-4-yl)piperazin-2-yl)acetonitrile] | > 7.00 | 6.00 to 7.00 | 6.00 to 7.00
C=CC(=O)N1CCN(c2nc(OC[C@@H]3C[C@H](N4CCC(C(=O)N5CCN(Cc6ccc(-n7c(O)nnc7-c7cc(C(C)C)c(O)cc7O)cc6)CC5)CC4)CN3C)nc3c2CCN(c2cccc4cccc(Cl)c24)C3)C[C@@H]1CC#N [Compound 317, 2-[(2S)-4-[7-(8-chloronaphthalen-1-yl)-2-{[(2S,4S)-4-{4-[4-({4-[3-(2,4-dihydroxy-5-isopropylphenyl)-5-hydroxy-1,2,4-triazol-4-yl]phenyl}methyl)piperazine-1-carbonyl]piperidin-1-yl}-1-methylpyrrolidin-2yl]methoxy}-5H,6H,8H-pyrido[3,4-d]pyrimidin-4-yl]-1-(prop-2-enoyl)piperazin-2-yl]acetonitrile] | > 7.00 | 6.00 to 7.00 | > 7.00
C=C(F)C(=O)N1CCN(c2nc(OCCN3CCN(C(=O)C4CCN(Cc5ccc(-n6c(C(=O)NCC(F)(F)F)nnc6-c6cc(C(C)C)c(O)cc6O)cc5)CC4)CC3)nc3c2CCN(c2cccc4cccc(Cl)c24)C3)C[C@@H]1CC#N [Compound 207, (S)-4-(4-((4-(4-(2-((7-(8-chloronaphthalen-1-yl)-4-(3-(cyanomethyl)-4-(2-fluoroacryloyl)piperazin-1-yl)-5,6,7,8-tetrahydropyrido[3,4-d]pyrimidin-2-yl)oxy)ethyl)piperazine-1-carbonyl)piperidin-1-yl)methyl)phenyl)-5-(2,4-dihydroxy-5-isopropylphenyl)-N-(2,2,2-trifluoroethyl)-4H-1,2,4-triazole-3-carboxamide] | > 7.00 | > 7.00 | 6.00 to 7.00
C=CC(=O)N1CCN(c2nc(OC[C@@H]3C[C@@H](NC(=O)C4CCN(Cc5ccc(-n6c(O)nnc6-c6cc(C(C)C)c(O)cc6O)cc5)CC4)CN3C)nc3c2CCN(c2cccc4cccc(Cl)c24)C3)C[C@@H]1CC#N [Compound 205, N-((3R,5S)-5-(((4-((S)-4-acryloyl-3-(cyanomethyl)piperazin-1-yl)-7-(8-chloronaphthalen-1-yl)-5,6,7,8-tetrahydropyrido[3,4-d]pyrimidin-2-yl)oxy)methyl)-1-methylpyrrolidin-3-yl)-1-(4-(3-(2,4-dihydroxy-5-isopropylphenyl)-5-hydroxy-4H-1,2,4-triazol-4-yl)benzyl)piperidine-4-carboxamide] | > 7.00 | 6.00 to 7.00 | 6.00 to 7.00
C=CC(=O)N1CCN(c2nc(OC[C@@H]3CC[C@H](C(=O)N4CCN(C(=O)C5CCN(Cc6ccc(-n7c(C(=O)NCC(F)(F)F)nnc7-c7cc(C(C)C)c(O)cc7O)cc6)CC5)CC4)N3C)nc3c2CCN(c2cccc4cccc(Cl)c24)C3)C[C@@H]1CC#N [Compound 304, 4-{4-[(4-{4-[(2R,5S)-5-({[7-(8-chloronaphthalen-1-yl)-4-[(3S)-3-(cyanomethyl)-4-(prop-2-enoyl)piperazin-1-yl]-5H,6H,8H-pyrido[3,4-d]pyrimidin-2-yl]oxy}methyl)-1-methylpyrrolidine-2-carbonyl]piperazine-1-carbonyl}piperidin-1-yl)methyl]p-henyl}-5-(2,4-dihydroxy-5-isopropylphenyl)-N-(2,2,2-trifluoroethyl)-1,2,4-triazole-3-carboxamide] | > 7.00 | > 7.00 | 6.00 to 7.00
C=CC(=O)N1CCN(c2nc(OCCN3CCC4(CC3)CCN(C(=O)C3CCN(Cc5ccc(-n6c(C(N)=O)nnc6-c6cc(C(C)C)c(O)cc6O)cc5)CC3)CC4)nc3c2CCN(c2cccc4cccc(Cl)c24)C3)C[C@@H]1CC#N [Compound 210, (S)-4-(4-((4-(9-(2-((4-(4-acryloyl-3-(cyanomethyl)piperazin-1-yl)-7-(8-chloronaphthalen-1-yl)-5,6,7,8-tetrahydropyrido[3,4-d]pyrimidin-2-yl)oxy)ethyl)-3,9-diazaspiro[5.5]undecane-3-carbonyl)piperidin-1-yl)methyl)phenyl)-5-(2,4-dihydroxy-5-isopropylphenyl)-4H-1,2,4-triazole-3-carboxamide] | > 7.00 | > 7.00 | > 7.00
C=CC(=O)N1CCN(c2nc(OC[C@@H]3C[C@H](NC(=O)C4CCN(C(=O)C5CCN(Cc6ccc(-n7c(C(=O)NCC(F)(F)C(F)(F)F)nnc7-c7cc(C(C)C)c(O)cc7O)cc6)CC5)CC4)CN3C)nc3c2CCN(c2cccc4cccc(Cl)c24)C3)C[C@@H]1CC#N [Compound 308, N-[(3S,5S)-5-({[7-(8-chloronaphthalen-1-yl)-4-[(3S)-3-(cyanomethyl)-4-(prop-2-enoyl)piperazin-1-yl]-5H,6H,8H-pyrido[3,4-d]pyrimidin-2-yl]oxy}methyl)-1-methylpyrrolidin-3-yl]-1-[1-({4-[3-(2,4-dihydroxy-5-isopropylphenyl)-5-[(2,2,3,3,3-pentafluoropropyl)carbamoyl]-1,2,4-triazol-4-yl]phenyl}methyl)piperidine-4-carbonyl]piperidine-4-carboxamide] | > 7.00 | > 7.00 | > 7.00
